Measured values published in BindingDB's records for doi:10.1016/j.bmc.2013.03.004 (University of Oxford, 2013).

Target: T1, Lysosomal acid glucosylceramidase (Bos taurus, UniProt Q2KHZ8)
T1 sequence (Q2KHZ8 whole entry): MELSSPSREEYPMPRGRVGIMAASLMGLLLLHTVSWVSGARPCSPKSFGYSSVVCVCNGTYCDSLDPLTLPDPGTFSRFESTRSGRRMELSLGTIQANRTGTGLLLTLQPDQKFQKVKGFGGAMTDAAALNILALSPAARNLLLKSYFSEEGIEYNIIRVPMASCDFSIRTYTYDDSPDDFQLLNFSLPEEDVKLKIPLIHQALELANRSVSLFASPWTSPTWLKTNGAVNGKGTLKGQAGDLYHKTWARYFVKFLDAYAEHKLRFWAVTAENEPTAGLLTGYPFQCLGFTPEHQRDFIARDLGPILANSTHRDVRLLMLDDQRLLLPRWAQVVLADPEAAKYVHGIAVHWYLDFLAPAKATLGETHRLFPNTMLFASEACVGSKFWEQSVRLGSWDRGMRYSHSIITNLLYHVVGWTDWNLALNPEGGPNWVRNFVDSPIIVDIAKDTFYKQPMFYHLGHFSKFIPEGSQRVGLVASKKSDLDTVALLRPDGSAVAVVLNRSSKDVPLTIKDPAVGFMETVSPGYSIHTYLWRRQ
Assay: Inhibition of bovine liver beta-glucosidase

IC50: 997 µM
SMILES: OC[C@H](O)[C@@H]1NC[C@@H]1O
